This is an account of results in patent publication US8003684B2, “Crystal form and pharmaceutical compositions of (+)-R-zileuton” (Cornerstone Therapeutics, Inc., priority 2006, dated 2011).

The data set is described as follows: Moisture sorption/desorption analysis. It counts as physicochemical. From the text:
The profiles show the change in weight of a sample containing Form I as the relative humidity (herein referred to as “RH”) of the environment is changed between 5% and 95% at a 10% RH interval. […] The vapor sorption/desorption profiles indicate that Form I is non-hygroscopic. Moisture sorption/desorption data were collected on a VTI SGA-100 Vapor Sorption Analyzer, calibrated using sodium chloride and polyvinylpyrrolidone as calibration standards. Sorption and desorption data were collected over a range of 5% to 95% relative humidity (RH) at 10% RH interval under a nitrogen purge. Samples were not dried prior to analysis. Equilibrium criteria used for analysis were less than 0.0100% weight change in 5 minutes, with a maximum equilibration time of 3 hours if the weight criterion was not met. Data were not corrected for the initial moisture content of the sample.

With `C[C@H](c1cc2ccccc2s1)N(O)C(N)=O` [Form I, (+)-R-zileuton], the “weight change in adsorption profile” value (RH below 40%, FIG. 3) was “essentially no weight change”. For the same compound, for the setting “RH between 5% and 95%”, the “hygroscopicity from vapor sorption/desorption profiles” value is “non-hygroscopic”. Also, the “weight gain in adsorption profile” value (steady gain from RH 40% until RH reaches 95%, 10% RH interval, FIG. 3) is given as “approximately 2%”.
